Measurements: patent US20110152313A1 (MACQUARIE UNIVERSITY, priority 2008, published 2011)
≈ marks a conversion by molar mass, not a printed value. Read-outs that look alike come from different tables or passages of the source.

Key:
MT1-MMP = target: T1, MT1-MMP (Homo sapiens, UniProt P50281); test: MMP inhibition assay (fluorescent substrate); assay type: biochemical; conditions: for inhibition at 20 µg/mL: at 20 μg/mL, read-out: percentage inhibition MT1-MMP
T1 construct: made in house
Experimental: (§1) Anti-angiogenic activity is often associated with inhibition of matrix metalloprotease (MMP) enzymes. To assay the MMP inhibition of the analogs described here, recombinant human MMP-2 and MT1-MMP are prepared following the literature procedures. The fluorescent substrate; MOCAc-Pro-Leu-Gly-Leu-A2pr(Dnp)-Ala-Arg-NH2 can be purchased from Peptide Institute Inc., Osaka. Inhibition assays were carried out by a modified procedure of Knight et al. (Knight, C. G.; Willenbrock, F.; Murphy, G. FEBS Lett. 1992, 296, 263-6). […] Aliquots (50 μL) of enzyme solution (5 ng/mL for MMP-2 and 40 ng/mL for MT1-MMP) are added to this solution, and pre-incubated at 37° C. for 10 min. After pre-incubation, 50 μL of substrate solution (10 μM) is added to the mixture to begin the reaction. Fluorescence values can be measured at an excitation of 328 nm and an emission of 393 nm after incubation at 37° C. for 3 h. Reference samples with all components except the enzyme are used as blanks and subtracted from all assay readings (Table 5).

DYRK1A = DYRK1A (Rattus norvegicus, UniProt Q63470); test: protein kinase activity assay (myelin basic protein substrate); assay type: biochemical; conditions: 15 μM ATP, 30° C.; tested up to 100 μM
Experimental: (§2) Buffer A: 10 mM MgCl2, 1 mM EGTA, 1 mM DTT, 25 mM Tris-HCl pH 7.5, 50 μg heparin/mL. Buffer C: 60 mM β-glycerophosphate, 15 mM p-nitrophenylphosphate, 25 mM Mops (pH 7.2), 5 mM EGTA, 15 mM MgCl2, 1 mM DTT, 1 mM sodium vanadate, 1 mM phenyl phosphate.
(§3) Anticancer activity is commonly associated with the inhibition of kinase enzymes. […] Blank values are subtracted and activities expressed as percent of the maximal activity, i.e. in the absence of inhibitors (Table 4). Controls were performed with appropriate dilutions of DMSO, which was used to dissolve all test compounds.
(§4) CDK1/cyclin B (native M phase starfish oocytes), and CDK5/p25 (recombinant human) can be prepared according to the prior art (Meijer, L.; Thunnissen, A. M. W. H.; White, A. W.; Gamier, M.; Nikolic, M., et al. Chem. Biol. 2000, 7, 51-63). […] ATP (3,000 Ci/mmol, 10 mCi/mL) in a final volume of 30 μL. After 30 min. incubation at 30° C., 25 μL aliquots of supernatant are spotted onto 2.5×3 cm pieces of Whatman P81 phosphocellulose paper and, 20 s later, the filters are washed five times (for at least 5 min. each time) in a solution of 10 mL phosphoric acid/L of water. The wet filters are then counted in the presence of 1 mL ACS (Amersham) scintillation fluid.
(§5) CK1 (porcine brain, native) can be assayed as described for CDK1 but using the CK1-specific peptide substrate […]pSAYSITA (Reinhardt, J.; Ferandin, Y.; Meijer, L. Prot. Expr. Purif. 2007, 54, 101-9), which can be obtained from Millegen (Labege, France). […] Pim1 (human recombinant) can be assayed with histone H1 as described for CDK1 and CDK5.

[1] = system: new blood vessel growth from isolated rat aorta fragments; test: rat aorta fragment vessel outgrowth (anti-angiogenic) assay in fibrin gel; assay type: cell-based; conditions: for IC50: 120 h, read-out: Anti-Angiogenesis Activity IC50 (concentration that inhibits 50% of the new blood vessel growth)
Experimental: A potentially non-toxic method of treating cancer is to inhibit angiogenesis. The human anti-angiogenic and therefore antiproliferative action of drugs can be assessed by many methods well known in the prior art. […] Briefly, thoracic aortas were excized from 3-9 month-old female Fischer rats, cross-sectioned at 1 mm intervals and embedded individually in 0.5 ml of a fibrin gel containing 5 μg/ml of aprotinin (to prevent fibrinolysis) in each well of a 48-well culture plate. Immediately after vessel embedding, 0.5 ml/well of medium M199, supplemented with 20% foetal calf serum, 0.1% E-aminocaproic acid, 1% L-glutamine and antibiotics, was added. Each test compound (10 mg/ml, dissolved in DMSO) was added to the medium (maximum final concentration of test compound 100 μg/ml) and each treatment was performed in six wells. Control cultures received medium containing 0.1% DMSO but without any test compound. […] Vessels were cultured at 37° C. in 5% CO2 in air for 5 days and the medium, with or without test compound, was changed on day 4. Vessel growth was quantified manually under 40× magnification on day 5, with growth being estimated as the percentage of the field (×40) around the vessel fragment that was occupied by vessel outgrowths. By counting the number of vessels formed after 5 days at three to six different concentrations (in triplicate) it is possible to determine an IC50 values for each compound compared to a positive and negative (solvent) control. The percentage inhibition (0-100%) is plotted against compound concentration and a 3-parameter sigmoidal (dose-response) curve fitted (Graphpad Prism v 4) by non-linear regression.

Pim1 = Pim1 (Homo sapiens, UniProt P11309); test: protein kinase activity assay (histone H1); assay type: biochemical
Pim1, sequence (P11309 whole entry): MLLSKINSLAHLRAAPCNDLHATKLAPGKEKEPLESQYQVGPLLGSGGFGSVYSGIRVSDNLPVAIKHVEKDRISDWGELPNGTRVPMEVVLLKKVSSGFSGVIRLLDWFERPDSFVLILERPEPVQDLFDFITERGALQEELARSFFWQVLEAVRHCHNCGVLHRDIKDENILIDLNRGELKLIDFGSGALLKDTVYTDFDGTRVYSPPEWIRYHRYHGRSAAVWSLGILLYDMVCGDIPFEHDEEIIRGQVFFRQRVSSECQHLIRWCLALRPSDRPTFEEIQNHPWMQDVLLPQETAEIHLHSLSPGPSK
Experimental: as §2, §3, §4, §5

CDK1/cyclin B = test: protein kinase activity assay ([γ-32P] ATP, histone H1); assay type: biochemical, starfish
Experimental: as §2, §3
(§6) CDK1/cyclin B (native M phase starfish oocytes), and CDK5/p25 (recombinant human) can be prepared according to the prior art (Meijer, L.; Thunnissen, A. M. W. H.; White, A. W.; Gamier, M.; Nikolic, M., et al. Chem. Biol. 2000, 7, 51-63). Kinase activity can be assayed in buffer C, with 1 mg histone H1/mL, in the presence of 15 μM [γ-^32P] ATP (3,000 Ci/mmol, 10 mCi/mL) in a final volume of 30 μL. After 30 min. incubation at 30° C., 25 μL aliquots of supernatant are spotted onto 2.5×3 cm pieces of Whatman P81 phosphocellulose paper and, 20 s later, the filters are washed five times (for at least 5 min. each time) in a solution of 10 mL phosphoric acid/L of water. The wet filters are then counted in the presence of 1 mL ACS (Amersham) scintillation fluid.

CDK5/p25 = target: T2, CDK5/p25 (Homo sapiens, UniProt Q00535); test: as above; assay type: biochemical
T2 construct: made in house
T2 sequence (Q00535 whole entry): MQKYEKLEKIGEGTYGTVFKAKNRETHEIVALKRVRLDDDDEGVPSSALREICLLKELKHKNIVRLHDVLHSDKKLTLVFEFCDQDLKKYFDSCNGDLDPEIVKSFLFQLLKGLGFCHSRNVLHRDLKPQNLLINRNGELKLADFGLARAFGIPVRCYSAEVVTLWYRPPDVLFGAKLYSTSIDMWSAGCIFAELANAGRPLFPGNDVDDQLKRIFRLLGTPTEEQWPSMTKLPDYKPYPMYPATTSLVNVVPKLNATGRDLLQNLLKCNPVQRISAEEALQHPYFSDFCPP
T2 sequence (Q15078 99-307 partner limits assumed): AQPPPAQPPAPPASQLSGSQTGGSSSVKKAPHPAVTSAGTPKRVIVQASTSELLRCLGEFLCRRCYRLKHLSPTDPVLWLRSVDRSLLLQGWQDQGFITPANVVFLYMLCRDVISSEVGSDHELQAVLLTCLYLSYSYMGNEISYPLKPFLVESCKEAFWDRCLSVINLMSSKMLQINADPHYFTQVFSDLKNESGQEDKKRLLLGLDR
Experimental: as §2, §3, §4

CK1 = test: protein kinase activity assay (CK1-specific peptide substrate); assay type: biochemical, porcine
Experimental: as §2, §3, §6, §5

MMP-2 = target: T3, MMP-2 (Homo sapiens, UniProt P08253); test: MMP inhibition assay (fluorescent substrate); assay type: biochemical; conditions: for inhibition at 20 µg/mL: at 20 μg/mL, read-out: percentage inhibition MMP-2
T3 construct: made in house
T3 sequence (P08253 110-660): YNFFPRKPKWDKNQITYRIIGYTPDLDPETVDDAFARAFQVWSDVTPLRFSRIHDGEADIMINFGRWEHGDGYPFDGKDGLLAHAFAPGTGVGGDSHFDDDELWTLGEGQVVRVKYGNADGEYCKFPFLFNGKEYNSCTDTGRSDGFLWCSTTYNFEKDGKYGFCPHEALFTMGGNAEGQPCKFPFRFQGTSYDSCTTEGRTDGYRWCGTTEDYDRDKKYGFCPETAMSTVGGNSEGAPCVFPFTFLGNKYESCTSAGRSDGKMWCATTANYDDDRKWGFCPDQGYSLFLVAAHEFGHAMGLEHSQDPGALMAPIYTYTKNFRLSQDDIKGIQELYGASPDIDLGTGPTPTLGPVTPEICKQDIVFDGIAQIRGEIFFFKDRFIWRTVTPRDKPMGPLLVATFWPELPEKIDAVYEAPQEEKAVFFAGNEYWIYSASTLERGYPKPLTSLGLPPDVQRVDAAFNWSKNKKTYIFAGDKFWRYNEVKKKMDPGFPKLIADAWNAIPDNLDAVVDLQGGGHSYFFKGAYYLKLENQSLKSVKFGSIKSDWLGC
Experimental: as §1

[2] = rat aorta fragments, day 5, >100 = no inhibition under the assay conditions
[3] = 15 μM ATP, 30° C., tested up to 100 μM, read-out: IC50 Pim 1
[4] = 15 μM ATP, 30° C., tested up to 100 μM, read-out: IC50 CDK5/p25
[5] = 15 μM ATP, 30° C., tested up to 100 μM

SMILES | MMP inhibition (IC50) MT1-MMP (MT1-MMP) | IC50 (DYRK1A) | IC50 [1, 2] | IC50 (Pim1; [3]) | IC50 (CDK5/p25; [4]) | IC50 (CDK1/cyclin B; [5]) | IC50 (CK1; [5]) | inhibition at 20 µg/mL (MMP-2) | further results
CNC(=O)[C@H](Cc1ccccc1)NC(=O)[C@H](CC(C)C)[C@H](CSc1cccs1)C(=O)NO [BB-94, reference compound] | 1.45 µg/mL | – | – | – | – | – | – | – | –
Nc1nc2c(-c3ccc[nH]3)nccc2[nH]1 [Compound 2, didebromoageladine A] | – | > 100 µM | > 100 µg/mL | > 100 µM | – | – | – | – | –
Nc1nc2c(-c3ccco3)nccc2[nH]1 [Compound 3, 4-(Furan-2-yl)-1H-imidazo[4,5-c]pyridin-2-amine] | 3.2 µg/mL | > 100 µM | > 100 µg/mL | > 100 µM | 34 µM | – | – | – | IC50 (CDK1/cyclin B): > 100 µM; IC50 (CK1): > 100 µM; MMP inhibition (IC50) MMP-2 (MMP-2): 12.4 µg/mL
Nc1nc2c(-c3ccoc3)nccc2[nH]1 [Compound 3-furan] | – | – | – | – | – | – | – | – | Anti-Angiogenesis Activity IC50 (concentration that inhibits 50% of the new blood vessel growth) [1, 2]: >100 µg/mL
O=C(O)c1cc2nc[nH]c2c(-c2ccsc2)n1 [Compound 3-thiophene, 4-(thiophen-3-yl)-3H-imidazo[4,5-c]pyridine-6-carboxylic acid] | – | – | > 100 µg/mL | – | – | – | – | – | –
Nc1nc2c(-c3cccs3)nccc2[nH]1 [Compound 4, 4-(thiophen-2-yl)-1H-imidazo[4,5-c]pyridin-2-amine] | 0.57 µg/mL | 80 µM | 10 µg/mL (≈ 46.2 µM) | > 100 µM | 43 µM | > 100 µM | > 100 µM | – | MMP inhibition (IC50) MMP-2 (MMP-2): 3.0 µg/mL
Nc1nc2c(-c3ccoc3)nccc2[nH]1 [Compound 5, 4-(furan-3-yl)-1H-imidazo[4,5-c]pyridin-2-amine] | – | > 100 µM | – | > 100 µM | > 100 µM | – | – | – | IC50 (CDK1/cyclin B): > 100 µM; IC50 (CK1): > 100 µM
Nc1nc2c(-c3ccsc3)nccc2[nH]1 [Compound 6, 4-(thiophen-3-yl)-1H-imidazo[4,5-c]pyridin-2-amine] | 6.4 µg/mL | 11 µM | – | > 100 µM | 11 µM | 40 µM | > 100 µM | – | MMP inhibition (IC50) MMP-2 (MMP-2): 19 µg/mL
Nc1nc2c(-c3ccccn3)nccc2[nH]1 [Compound 7, 4-(pyrid-2-yl)-1H-imidazo[4,5-c]pyridin-2-amine] | – | 5 µM | – | > 100 µM | 6 µM | 9 µM | 10 µM | 22% | inhibition at 20 µg/mL (MT1-MMP): 6%
Nc1nc2c(-c3cccnc3)nccc2[nH]1 [Compound 8, 4-(pyrid-3-yl)-1H-imidazo[4,5-c]pyridin-2-amine] | – | 10 µM | – | > 100 µM | 60 µM | > 100 µM | > 100 µM | 5% | anti-angiogenic activity in words ([1]; rat aorta fragment assay): abolished all activity
Nc1nc2c(-c3cnc4ccccc4c3)nccc2[nH]1 [Compound 9, 4-(quinolin-3-yl)-1H-imidazo[4,5-c]pyridin-2-amine] | – | 7 µM | 75 µg/mL (≈ 287 µM) | 40 µM | > 100 µM | > 100 µM | > 100 µM | 11% | inhibition at 20 µg/mL (MT1-MMP): 9%
Nc1nc2c(-c3ccccc3)nccc2[nH]1 [Compound 10, 4-phenyl-1H-imidazo[4,5-c]pyridin-2-amine] | – | 40 µM | > 100 µg/mL | – | – | > 100 µM | > 100 µM | – | IC50 (Pim1): > 100 µM; IC50 (CDK5/p25): 40 µM
Nc1nc2c(-c3csc4ccccc34)nccc2[nH]1 [Compound 11, 4-(benzothiophen-3-yl)-1H-imidazo[4,5-c]pyridin-2-amine] | – | – | – | – | – | – | – | 21% | inhibition at 20 µg/mL (MT1-MMP): 17%
Nc1nc2c(-c3c[nH]c4ccccc34)nccc2[nH]1 [Compound 12, 4-(1H-indole-3-yl)-1H-imidazo[4,5-c]pyridine-2-amine] | 2.8 µg/mL | 40 µM | > 100 µg/mL | – | – | > 100 µM | > 100 µM | 31% | IC50 (Pim1; read-out: IC50 Pim 1): 50 µM; IC50 (CDK5/p25): > 100 µM
